Several values for one entry are separate records, joined by “and”; a condition that tells them apart may be missing. Equal values may be shown once. Marks after values point to notes of the source that are not given here.
Experiments:
[1] = test system: Murine mammary carcinoma MDAH-Mca-4 tumours; assay: Tumour growth delay and cures, MDAH-Mca-4 tumours grown i.m. in mice; type: in vivo, female C3H/HeN mice; conditions: for activity against the MDAH-Mca-4 tumour (in words): single i.p. dose, alone or co-administered with DMXAA 80 µmol/kg
Description: (§1) Murine mammary carcinoma MDAH-Mca-4 tumours were grown in female C3H/HeN mice from stocks stored in liquid nitrogen at the sixth transplant generation, and were passaged and used for experiments at the eighth transplant generation. Tumours for experiments were grown by inoculating 20 µl of cell suspension ([…] packed cells) intramuscularly in the right gastrocenmius muscle. Animals were randomised to treatment groups, and treated with drugs when the diameter of the tumour-bearing leg reached 10-11 mm (ca. 0.6 g tumour), approximately 18 days after inoculation. […] Both compounds were administered essentially at the same time (within 1 min). Host toxicity was assessed by determination of lethality, and by measurement of body weight 4-5 days after drug treatment. The diameter of the tumour-bearing leg was measured three times weekly until values exceeded 13 mm (ca 1.4 g tumour) at which time the animals were terminated. The growth curve for each individual tumour was plotted as in Figure 1, and the time-to-endpoint (TTE, time from treatment to endpoint) was determined for each mouse. The median and mean TTE was determined for each treatment group. The mean tumour growth delay for each group was calculated as the difference between mean TTE for treated and control groups. The statistical significance of the antitumour effects was tested using ANOVA followed by Dunnett's test to determine p values for the significance of differences between individual groups.
Animals and Tumours: Murine mammary carcinoma MDAH-Mca-4 tumours were grown from stocks stored in liquid nitrogen at the sixth transplant generation. Tumours (eighth transplant generation when used) were grown from 20 µl of cell suspension (7 mg packed cells), inoculated i.m. in the right gastrocnemius muscle of female C3H/HeN mice (22-25 g at the time of treatment). Mice were randomised to treatment which commenced when the tumour + leg diameter reached 10-11 mm (0.5-0.7 g tumour).
(§2) Toxicity was assessed as lethality, and body weight loss measured four days after treatment. Any animals becoming moribund were terminated and treated as drug-related deaths in the analysis. The diameter of the tumour-bearing leg was measured 3 times per week after treatment. Antitumour activity was assessed from the tumour growth delay, defined as the difference in time to reach the endpoint of 13 mm (1.5 g tumour) for treated and control groups. Responses were classed as cures if animals were free of evident tumour 120 days after treatment. The statistical significance of tumour growth inhibition was tested by ANOVA using SAS for Windows, with Dunnett's test to evaluate p-values for differences between treatment groups. In experiments with substantial numbers of cures (free of tumour for > 120 days after treatment), statistical significance was tested by Kruskal-Wallis non-parametric analysis of variance using SAS for Windows, and the difference between treatment and control groups by Dunn's test using Sigmastat v2.0.

[2] = Host toxicity: lethality, body weight change, MTD in tumour-bearing mice; conditions: for lowering of the MTD for the chemotherapy drug in the combination: co-administration of DMXAA 80 µmol/kg, one dose level; for MTD: MTD (µmol/kg)
Description: as §1, §2

in vivo = conditions: female, C3H/HeN, mouse; for AUC: intraperitoneal
Description: (§3) At various times blood was collected from the retro-orbital sinus of anaesthetised mice into heparinised tubes, and the plasma separated by centrifugation. Tumours were rapidly dissected and frozen at -80°C. Groups of 2-5 mice were used for each time point.
(§4) LC-MS analysis of paclitaxel: Concentrations of paclitaxel in plasma and tumour were determined by HPLC with detection by positive mode electrospray mass spectrometry. Aliquots of plasma (50 µl) were treated with 1ml of ice-cold acetonitrile:methanol (3:1 v/v) to precipitate proteins. Following addition of 5 µl of an internal standard solution (10 mM cephalomannine), samples were centrifuged, and the resulting supernatants evaporated using a Speed-Vac solvent concentrator (Savant Instruments, NY). The residues were dissolved in 100 µl of 1:1 (v/v) methanol:mobile phase (48% acetonitrile, 52% 1mM sodium acetate buffer (pH 6.2)), and 5-40 µl analysed by LC-MS. Frozen tumours were minced, then homogenised in 2 vol distilled water using a Polytron homogeniser. Ice-cold acetonitrile (1 ml), and 10 µl of internal standard (20 µM cephalomannine) was added to 200 µl of tumour homogenate. The samples were centrifuged and the supernatants dried as above. The residues were dissolved in 200 µl of 1:1 (v/v) methanol:mobile phase, and 5 µl analysed by LC-MS.
(§5) The LC-MS system was an Agilent HP1100/MSD (Hewlett Packard Waldbronn, Germany) with a 3.2 mm x 150 mm C8 5 µm column (Alltima Associates Inc., Deerfield, IL) and a flow rate of 0.7 ml/min. The mass detector used N2 as the nebulizing and drying gas (flow rate 10 L/min, 350°C; neubulizer pressure 25 psi, capillary voltage 2500 V, fragmentor voltage 120 V). Paclitaxel (MW 854) and cephalomannine internal standard (MW 832) were detected, using single ion monitoring, as sodium adducts at m/z of 876 and 854, respectively. Spiking of control material indicated assay linearity from 0.3-30 µM for both plasma and tumour (r^2 = 0.999). The intra- and inter- assay precision and accuracy gave coefficients of variation ≤ 5%, and recoveries in the range 92-102%. The lower limit of detection of paclitaxel in plasma and tumour (signal:noise ratio of 3) was 0.3 µM.
(§6) Aliquots of plasma (50 µl) were treated with 1 ml of ice-cold acetonitrile:methanol (3:1 v/v), centrifuged, and the resulting supernatants evaporated as above. The residues were dissolved in 200 µl of 10 mM ammonium acetate buffer (pH 5) and 25 µl was analysed by HPLC using a HP1100 system with diode array detector (278 nm) and fluorescence detector. The column and flow rate were as for paclitaxel above, with a mobile phase of 16% acetonitrile (v/v) in 10 mM ammonium acetate buffer (pH 5). […] The intra- and inter- assay precision and accuracy gave coefficients of variation <7%, and an average recovery of 70%. The lower sensitivity limit of detection by fluorescence (signal:noise ration of 3) was 0.1 µM.
(§7) Pharmacokinetic Modelling: Modelling of pharmacokinetic data was done using ModelMaker version 4.0 (Cherwell Scientific Limited, The Magdalen Centre, Oxford Science Park, Oxford OX4 4GA, United Kingdom). The following pharmacokinetic parameters were used: Kabs, the first-order rate constant for absorption into the central compartment; Cl, total body clearance; Clinter, intercompartmental clearance; Vd, apparent volume of distribution of the central compartment; Vd2, apparent volume of distribution of the second compartment; Km, Michaelis-Menten constant; Vmax, theoretical maximum rate; AUC, area under the concentration-time curve. For all compounds it was assumed that all of the administered dose would reach the central compartment (i.e. 100% bioavailability). Differences between treatment groups were tested using a F-test comparing the entire curves and if this difference was significant (i.e. p≤0.05) the estimates of each individual model parameter for both groups were tested using a 2-tailed t-test.

MDAH-Mca-4 tumour = assay: Tumour blood flow inhibition, Hoechst 33342 perfusion marker; type: in vivo, mice; conditions: DMXAA at 80 µmol/kg (Fig 6A)
Description: Tumour blood flow inhibition: Tumour blood flow was assessed using the fluorescent perfusion marker Hoechst 33342 (8mg/ml in saline), which was administered i.v. at various times after drug treatment. Mice were scarified 2 min later, and frozen sections (14 µm) prepared from the distal, central and proximal regions of each tumour. Sections were examined with a Nikon epifluorescence microscope at 10x magnification using a UV-1A filter block (excitation 365 nm, barrier filter 400 nm, and dichroic mirror 400 nm). A grid with 81 squares (100 x 100 µm), was used for point scoring of staining. The whole area of each section was scored to avoid bias between peripheral and central regions (which were less well perfused). Normal tissue was excluded but necrotic areas were included. Differences between groups were treated for significance using the Student's t-test (Sigma Stat, version-2.0; Jandel Scientific Limited).

[3] = Pharmacokinetics in plasma and tumour of tumour-bearing mice
Description: as §3, §4, §5, §6, §7

[4] = chemotherapy drug alone, linear regression of growth delay on dose
[5] = chemotherapy drug co-administered with DMXAA 80 µmol/kg, linear regression
[6] = paclitaxel 31.6 µmol/kg alone, i.p. once
[7] = paclitaxel 31.6 µmol/kg alone, i.p. once, 7 mice treated
[8] = chemotherapy drug alone at its MTD, i.p.
[9] = chemotherapy drug at MTD of combination, co-administered with DMXAA 80 µmol/kg
[10] = female, C3H/HeN, mouse, in vivo, ip, chemotherapy drug alone (no DMXAA)
[11] = female, C3H/HeN, mouse, in vivo, ip, chemotherapy drug co-administered with DMXAA 80 µmol/kg
[12] = DMXAA 80 µmol/kg alone, i.p. once (Table 1)

For `CC(=O)O[C@H]1C(=O)[C@@]2(C)[C@H]([C@H](OC(=O)c3ccccc3)[C@]3(O)C[C@H](OC(=O)[C@H](O)[C@@H](NC(=O)c4ccccc4)c4ccccc4)C(C)=C1C3(C)C)[C@]1(OC(C)=O)CO[C@@H]1C[C@@H]2O` [paclitaxel, 5β, 20-Epoxy-1,2a,4,7β,10β,13a-hexahydroxytax-11-en-9-one 4,10-diacetate 2-benzoate 13-ester with (2R, 3 S)-N-benzoyl-3-phenylisoserine], the antitumour activity ([1]; DMXAA dose-response experiment (Fig 5), paclitaxel alone at 23.7 µmol/kg) was “no significant activity”, the “Slope of dose/response” value [1, 4] was 0.08 ± 0.06 days/µmol/kg and the “Slope of dose/response” value [1, 5] was 1.83 ± 0.4 days/µmol/kg. The DMF ([1]; gradient with DMXAA/gradient without DMXAA, estimated using upper error estimate of the slope for the chemotherapy drug only) was “significantly greater than unity”, the DMF ([1]; gradient with DMXAA/gradient without DMXAA, estimated using upper error estimate of the slope for the chemotherapy drug only, listed as Paclitaxel) was >13^c and the “Growth delay (days) Mean” value [1, 6] was 0.1 days. For the same compound, the “Number of mice Cures” value [1, 7] was 0, the “Growth delay (days) Mean” value ([1]; paclitaxel 42.1 µmol/kg alone, i.p. once) was 4 days and 4.3 days and the “Number of mice Cures” value ([1]; paclitaxel 42.1 µmol/kg alone, i.p. once, 7 mice treated) was 0. The “activity against the MDAH-Mca-4 tumour (in words)” value (“activity … (in words)” for short) [1] was “essentially inactive”, the “% body weight change at 4 days” value [2, 8] was 0.3 ± 1.1% and the “% body weight change at 4 days” value [2, 9] was -3.9 ± 1.2%. The “lowering of the MTD for the chemotherapy drug in the combination” value [2] was 1.33 fold, the “Number of mice Deaths” value ([2]; female, C3H/HeN, mouse, in vivo, ip, 42.1 µmol/kg) was 0 and the MTD [2, 10] was 42.1 µmol/kg. For the same compound, the MTD [2, 11] was 31.6 µmol/kg, the “% Body weight change (d4-5) Mean” value ([2]; mouse, in vivo, ip) was 0.3% and the “% Body weight change (d4-5) Mean” value [2, 6] was 1.9%. For the same compound, the “Number of mice Deaths” value [2, 7] was 0, the AUC (in vivo; plasma, 23.7 umol/kg) was 18.8 µM·h and the AUC (in vivo; tumour, 23.7 umol/kg) was 32.8 µM·h.

In the case of `Cc1ccc2c(=O)c3cccc(CC(=O)O)c3oc2c1C` [DMXAA, 5,6-dimethylxanthenone-4-acetic acid], the “Growth delay (days) Median” value ([1]; DMXAA 80 µmol/kg alone (Table 3, interim analysis)) is reported as 10.5 days, the “Growth delay (days) Mean” value [1, 12] is reported as 8.3 days and the “Number of mice Cures” value ([1]; DMXAA 80 µmol/kg alone, i.p. once, 7 mice treated (Table 1)) is reported as 0. The “mean tumour growth delays (range over experiments)” value ([1]; DMXAA alone at 80 µmol/kg) was 3.5 to 8.3 days, the “tumour growth delay, overall mean” value ([1]; DMXAA alone at 80 µmol/kg, all experiments) was 6.6 ± 0.6 days and the “inhibition of tumour blood flow (H33342 perfusion), time course” value (MDAH-Mca-4 tumour) was “prompt and irreversible blood flow shutdown, with no recovery by 24 hr”. The “% Body weight change (d4-5) Mean” value ([2]; DMXAA 80 µmol/kg alone (Table 3)) was -4.8%, the “% Body weight change (d4-5) Mean” value [2, 12] was -4.1% and the AUC (in vivo; plasma, 80 umol/kg) was 3630 µM·h. The Km (in vivo; plasma, ip, 80 µmol/kg) was 220 µM, the “effect of co-administration on DMXAA plasma pharmacokinetic parameters” value ([3]; DMXAA 80 µmol/kg with paclitaxel at 23.7 µmol/kg) was “unaffected” and the “Vmax (µM hr^-1)” value ([3]; Plasma, DMXAA 80 µmol/kg i.p., parentheses % CV) was 63 (6.1) µM hr^-1.

With `CC(=O)O[C@@]12CO[C@@H]1C[C@H](O)[C@@]1(C)C(=O)[C@H](O)C3=C(C)[C@@H](OC(=O)[C@H](O)[C@@H](NC(=O)OC(C)(C)C)c4ccccc4)C[C@@](O)([C@@H](OC(=O)c4ccccc4)[C@H]21)C3(C)C` [docetaxel, (2R,3S)-N-carboxy-3-phenylisoserine, N tert-butyl ester, 13-ester with 5b-20-epoxy-1,2a,4,7b,10b,13a-hexahydroxytax-11-en-9-one 4-acetate 2-benzoate trihydrate] the “Growth delay (days) Median” value ([1]; Docetaxel 17.8 µmol/kg alone, interim analysis) was -1.7 days, the “Growth delay (days) Median” value ([1]; Docetaxel 23.7 µmol/kg alone, interim analysis) was 0.8 days and the “Slope of dose/response” value [1, 4] was -0.02 ± 0.14 days/µmol/kg. For the same compound, the “Slope of dose/response” value [1, 5] was 1.37 ± 0.22 days/µmol/kg, the DMF ([1]; gradient with DMXAA/gradient without DMXAA, estimated using upper error estimate of the slope for the chemotherapy drug only, trihydrate) was “significantly greater than unity” and the DMF ([1]; im) was >9^c. The “activity … (in words)” value ([1]; listed as Docetaxel, trihydrate) was “essentially inactive”, the “activity … (in words)” value ([1]; trihydrate) was “essentially devoid of activity” and the “% Body weight change (d4-5) Mean” value ([2]; Docetaxel 17.8 µmol/kg alone) was -1.8%. For the same compound, the “Number of mice Deaths” value ([2]; Docetaxel 17.8 µmol/kg alone, 2 mice treated, interim analysis) was 0, the “% Body weight change (d4-5) Mean” value ([2]; Docetaxel 23.7 µmol/kg alone) was -4.1% and the “Number of mice Deaths” value ([2]; Docetaxel 23.7 µmol/kg alone, 5 mice treated, interim analysis) was 0. For the same compound, the “% body weight change at 4 days” value [2, 8] was -4.1 ± 1.3%, the “% body weight change at 4 days” value [2, 9] was -7.2 ± 1.2% and the “lowering of the MTD for the chemotherapy drug in the combination” value [2] was 1.33 fold. For the same compound, the MTD [2, 10] was 23.7 µmol/kg and the MTD [2, 11] was 17.8 µmol/kg.

Source: patent EP1287854B1 (Cancer Research Technology Limited, priority 2001, dated 2003)
